According to US12006330B2, “Substituted macrocyclic compounds and related methods of treatment” (Alkermes, Inc., priority 2020, dated 2024):

Biological target: T1, human orexin-2 receptor (OX2R) (Homo sapiens, UniProt O43614)
T1 construct: expressed in transfected cells
T1 sequence (O43614 1-444): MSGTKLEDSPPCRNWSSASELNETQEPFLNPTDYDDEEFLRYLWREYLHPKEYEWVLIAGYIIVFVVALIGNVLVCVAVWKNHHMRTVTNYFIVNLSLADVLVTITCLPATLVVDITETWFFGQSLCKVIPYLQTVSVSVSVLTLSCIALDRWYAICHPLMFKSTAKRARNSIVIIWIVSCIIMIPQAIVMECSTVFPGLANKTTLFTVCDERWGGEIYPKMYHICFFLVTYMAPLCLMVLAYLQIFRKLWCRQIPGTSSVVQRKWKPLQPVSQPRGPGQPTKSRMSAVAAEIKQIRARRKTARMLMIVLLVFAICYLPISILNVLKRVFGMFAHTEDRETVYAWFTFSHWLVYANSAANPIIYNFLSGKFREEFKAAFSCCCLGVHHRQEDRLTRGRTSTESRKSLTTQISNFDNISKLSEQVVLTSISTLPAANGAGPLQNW
Test: Human OX2R IP1 assay
Assay type: cell-based
Conditions: T-Rex CHO cells stably overexpressing human OX2R; IP1 accumulation; 1 hr at 37 degrees C; mean EC50
Protocol: T-Rex CHO cells stably overexpressing the human orexin-2 receptor (OX2R) were induced overnight with 1 μg/mL of doxycycline in a T225 flask. 24 hours post induction, cells were lifted with accutase and plated into a 384-well proxy plate at 30,000 cells/well. Cells were then treated with different test compounds in 1× stimulation buffer containing 10 mM Hepes, 1 mM CaCl2), 0.5 mM MgCl2, 4.2 mM KCl, 146 mM NaCl, 5.5 mM glucose, and 50 mM LiCl, pH 7.4, for 1 hr at 37 degrees C. Following incubation, the reaction was terminated by the addition of detection mix, which is composed of IP1-d2 and anti-IP1-cryptate diluted in lysis buffer as well as 1× stimulation buffer. The plates were allowed to incubate for 1 hour at room temperature and were then read in the EnVision® multimode plate reader, measuring inositol phosphate levels.
Cisbio IP1 is a cell-based functional assay quantifying the accumulation of inositol monophosphate (IP), a metabolite released as a result of orexin 2 receptor activation through the phospholipase C-Gq signaling pathway. This is a competitive immunoassay in which the IP1 produced by the cells upon receptor activation competes with the IP1 analog coupled to the d2 fluorophore (acceptor) for binding to an anti-IP1 monoclonal antibody labeled with Eu cryptate (donor). The measured HTRF-FRET based signal is inversely proportional to the IP1 concentration produced.
The EC50 values reported in Table 2 were obtained according to the human OX2R IP1 assay described above. Data are the mean EC50 values S.E.M. Reference Compound A is methyl (2R,3S)-3-((methylsulfonyl)amino)-2-(((cis-4-phenylcyclohexyl)oxy)methyl)-piperidine-1-carboxylate (Example 5 of PCT publication No. WO2017/135306). Reference Compound B is N-((2S,3S)-1-(2-hydroxy-2-methylpropanoyl)-2-((2,3′,5′-trifluorobiphenyl-3-yl)methyl)pyrrolidin-3-yl)methanesulfonamide (Example 483 of PCT publication No. WO2019/027058).

Row | EC50 [nM] | SMILES
1 | > 1000 | O=S(=O)(N[C@H]1CCCN2CCOc3ncccc3[C@H]3CC[C@H](CC3)OC[C@@H]12)C1CC1 (stereo in doubt) [Compound 63]
2 | > 1000 | CC(C)S(=O)(=O)N[C@H]1CCCN2CCOc3ncccc3[C@H]3CC[C@H](CC3)OC[C@@H]12 (stereo in doubt) [Compound 64]
3 | < 10 | O=C1COc2nccnc2[C@H]2CC[C@H](CC2)OC[C@H]2[C@@H](NS(=O)(=O)C3CC3)CCCN12 (stereo in doubt) [Compound 65]
4 | < 10 | CC(C)S(=O)(=O)N[C@H]1CCCN2C(=O)COc3nccnc3[C@H]3CC[C@H](CC3)OC[C@@H]12 (stereo in doubt) [Compound 66]
5 | 10 to 1000 | O=C1COc2nnccc2[C@H]2CC[C@H](CC2)OC[C@H]2[C@@H](NS(=O)(=O)C3CC3)CCCN12 (stereo in doubt) [Compound 67]
6 | < 10 | Cc1ncnc2c1[C@H]1CC[C@H](CC1)OC[C@H]1[C@@H](NS(=O)(=O)C3CC3)CCCN1C(=O)CO2 (stereo in doubt) [Compound 68]
7 | < 10 | Cc1ncnc2c1[C@H]1CC[C@H](CC1)OC[C@H]1[C@@H](NS(=O)(=O)C(C)C)CCCN1C(=O)CO2 (stereo in doubt) [Compound 69]
8 | < 10 | Cc1cccc2c1[C@H]1CC[C@H](CC1)OC[C@H]1[C@@H](NS(=O)(=O)C3CC3)CCN1C(=O)CO2 (stereo in doubt) [Compound 70]
9 | < 10 | O=C1COc2cccc(F)c2[C@H]2CC[C@H](CC2)OC[C@H]2[C@@H](NS(=O)(=O)C3CC3)CCCN12 (stereo in doubt) [Compound 74]
10 | < 10 | Cc1c(Cl)ccc2c1[C@H]1CC[C@H](CC1)OC[C@H]1[C@@H](NS(=O)(=O)C3CC3)CCCN1C(=O)CO2 (stereo in doubt) [Compound 75]
11 | < 10 | Cc1ccc2c(c1C)[C@H]1CC[C@H](CC1)OC[C@H]1[C@@H](NS(=O)(=O)C(C)C)CCCN1C(=O)CO2 (stereo in doubt) [Compound 76]
12 | < 10 | Cc1ccc2c(c1C)[C@H]1CC[C@H](CC1)OC[C@H]1[C@@H](NS(=O)(=O)C3CC3)CCCN1C(=O)CO2 (stereo in doubt) [Compound 77]
13 | < 10 | Cc1ccc2c(c1C)[C@H]1CC[C@H](CC1)OC[C@H]1[C@@H](NS(C)(=O)=O)CCCN1C(=O)CO2 (stereo in doubt) [Compound 78]
14 | < 10 | Cc1cccc2c1[C@H]1CC[C@H](CC1)OC[C@H]1[C@@H](NS(=O)(=O)C(C)C)CCN1C(=O)CO2 (stereo in doubt) [Compound 79]
15 | < 10 | O=C1COc2ccccc2[C@H]2CC[C@H](CC2)OC[C@H]2[C@@H](NS(=O)(=O)C3COC3)CCCN12 (stereo in doubt) [Compound 80]
16 | 10 to 1000 | Cc1ncnc2c1[C@H]1CC[C@H](CC1)OC[C@H]1[C@@H](NS(C)(=O)=O)CCN1C(=O)CO2 (stereo in doubt) [Compound 82]

Row | EC50 [nM] | SMILES
17 | 10 to 1000 | Cc1ncnc2c1[C@H]1CC[C@H](CC1)OC[C@H]1[C@@H](NS(=O)(=O)C3CC3)CCN1C(=O)CO2 (stereo in doubt) [Compound 83]
18 | 10 to 1000 | Cc1ncnc2c1[C@H]1CC[C@H](CC1)OC[C@H]1[C@@H](NS(=O)(=O)C(C)C)CCN1C(=O)CO2 (stereo in doubt) [Compound 86]
19 | < 10 | Cc1ccnc2c1[C@H]1CC[C@H](CC1)OC[C@H]1[C@@H](NS(=O)(=O)C3COC3)CCCN1C(=O)CO2 (stereo in doubt) [Compound 88]
20 | < 10 | Cc1ccnc2c1[C@H]1CC[C@H](CC1)OC[C@H]1[C@@H](NS(=O)(=O)C3CC3)CCN1C(=O)CO2 (stereo in doubt) [Compound 92]
21 | < 10 | Cc1ccnc2c1[C@H]1CC[C@H](CC1)OC[C@H]1[C@@H](NS(=O)(=O)C(C)C)CCN1C(=O)CO2 (stereo in doubt) [Compound 93]
22 | < 10 | CS(=O)(=O)N[C@H]1CCCN2C(=O)COc3ccc(O)cc3[C@H]3CC[C@H](CC3)OC[C@@H]12 (stereo in doubt) [Compound 96]
23 | 10 to 1000 | O=C1COc2ncncc2[C@H]2CC[C@H](CC2)OC[C@H]2[C@@H](NS(=O)(=O)C3CC3)CCCN12 (stereo in doubt) [Compound 97]
24 | < 10 | CC(C)S(=O)(=O)N[C@H]1CCN2C(=O)COc3ncccc3[C@H]3CC[C@H](CC3)OC[C@@H]12 (stereo in doubt) [Compound 101]
25 | < 10 | O=C1COc2ccccc2[C@H]2CC[C@H](CC2)OC[C@H]2[C@@H](NS(=O)(=O)C3CC3)CCN12 (stereo in doubt) [Compound 105]
26 | < 10 | CC(C)S(=O)(=O)N[C@H]1CCN2C(=O)COc3ccccc3[C@H]3CC[C@H](CC3)OC[C@@H]12 (stereo in doubt) [Compound 106]
27 | < 10 | O=C1COc2ncccc2[C@H]2CC[C@H](CC2)OC[C@H]2[C@@H](NS(=O)(=O)C3CC3)CCN12 (stereo in doubt) [Compound 107]
28 | < 10 | O=C1COc2ncccc2[C@H]2CC[C@H](CC2)OCC2[C@@H](NS(=O)(=O)C(F)(F)F)CCN12 (stereo in doubt) [Compound 108]
29 | < 10 | Cc1ccnc2c1[C@H]1CC[C@H](CC1)OC[C@H]1[C@@H](NS(=O)(=O)C3COC3)CCN1C(=O)CO2 (stereo in doubt) [Compound 109]
30 | < 10 | O=C1COc2ccccc2[C@H]2CC[C@H](CC2)OC[C@H]2[C@@H](NS(=O)(=O)C3COC3)CCN12 (stereo in doubt) [Compound 110]
31 | 10 to 1000 | C[C@H]1C[C@H](NS(C)(=O)=O)C2CO[C@H]3CC[C@H](CC3)c3ccccc3OCC(=O)N21 (stereo in doubt) [Compound 111]
